22 molecules from US9981925B2, “Substituted benzo[d][1,2,3]triazines as p70S6K inhibitors” (Merck Patent GmbH, priority 2012, dated 2018) can be followed below.

Molecules are shown by their SMILES.

Experiment [1] addresses His-AKT (Full Length) (Homo sapiens (Human), UniProt P31749). Nature of the experiment: AKT/PKB kinase assay. Type of experiment: biochemical. Here is the method:
In order to measure AKT inhibition in the Caliper Life Sciences LC3000, a TTP Mosquito liquid handling instrument was used to place 125 nl of the appropriate concentration of inhibitor in 100% DMSO (for a dose response curve calculation) into each well of a 384-well plate. To this reaction, the following components were added to a final volume of 12.5 μl: • 0.1 ng/μl His-AKT (Full Length) (Invitrogen, Part # P2999, Lot #641228C); • 160 μM ATP (Fluka, 02055); • 1 mM DTT (Sigma, D0632); • 1 mM MgCl2 (Sigma, M1028); • 1 μM substrate peptide (sequence FITC-AHA-[…]-NH2), synthesized by • Tufts Peptide Synthesis service; • 100 mM HEPES pH 7.5 (Calbiochem, 391338); and • 0.015% Brij-35 (Sigma, B4184).
The reaction was incubated for 90 min at 25° C., and then stopped by the addition of 70 μl of Stop buffer (100 mM HEPES pH 7.5, 0.015% Brij-35, 10 mM EDTA (Sigma, E7889)). The plate was read on a Caliper LC 3000 in an Off-Chip mobility shift assay format, using the following parameters for a 12-sipper chip: screening pressure −2.3 psi, upstream voltage −500, and downstream voltage −3000. These conditions cause unphosphorylated substrate and phosphorylated product peptide to resolve as separate peaks allowing direct measurement of percentage of conversion of substrate to product. The percent conversion was plotted against concentration of inhibitor to produce a sigmoidal dose response curve, from which an IC50 was calculated.

In experiment [2] the target is p70S6K (T412E mutant) (Homo sapiens (Human), UniProt P23443, T412E). Nature of the experiment: p70S6K enzyme assay. The format is biochemical. As for the experimental part:
p70S6K inhibitor compounds were diluted and plated in 96 well plates. A reaction mixture including the following components were then added to the compound plate to initiate the enzyme reaction: p70S6K (3 nM, T412E mutant, Millipore) was mixed with 24 μM ATP in an assay buffer containing 100 mM Hepes (pH 7.5), 5 mM MgCl2, 1 mM DTT, 0.015% Brij and 1 μM of the substrate peptide FITC-AHA-[…]-OH (derived from the S6 ribosomal protein sequence, FITC=fluorescein isothiocyanate, AHA=6-aminohexanoic acid). The reaction was incubated for 90 min at 25° C., before the addition of 10 mM EDTA to stop the reaction. The proportion of substrate and product (phosphorylated) peptide was analyzed on a Caliper Life Sciences Lab Chip 3000, using a pressure of −1.4 psi, and upstream and downstream voltages of −3000 and −700, respectively. Product peaks were resolved before substrate peaks on the resulting chromatograms. To assess the inhibitory potential of the compounds, IC50 values were determined, as shown above.

Where [3] appears, read: 160 μM ATP, 90 min at 25° C., Caliper mobility shift.
[4] abbreviates: 24 μM ATP, 90 min at 25° C., Caliper mobility shift.
Where [5] appears, read: value printed in the synthesis paragraph.

His-AKT (Full Length), sequence (P31749 whole entry): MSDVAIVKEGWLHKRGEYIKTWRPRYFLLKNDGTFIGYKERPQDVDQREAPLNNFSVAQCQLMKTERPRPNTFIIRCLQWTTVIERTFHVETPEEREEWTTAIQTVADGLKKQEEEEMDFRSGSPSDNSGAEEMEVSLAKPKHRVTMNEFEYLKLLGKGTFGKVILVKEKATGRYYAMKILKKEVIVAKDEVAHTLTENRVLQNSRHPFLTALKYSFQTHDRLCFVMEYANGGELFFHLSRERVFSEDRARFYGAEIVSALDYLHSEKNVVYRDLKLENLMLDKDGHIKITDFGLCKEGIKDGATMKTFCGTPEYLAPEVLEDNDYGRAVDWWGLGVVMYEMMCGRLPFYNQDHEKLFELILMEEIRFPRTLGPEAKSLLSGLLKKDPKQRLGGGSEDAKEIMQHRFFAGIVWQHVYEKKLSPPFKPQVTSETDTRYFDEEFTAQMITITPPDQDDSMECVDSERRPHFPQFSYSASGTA
p70S6K (T412E mutant), sequence (P23443 whole entry T412E): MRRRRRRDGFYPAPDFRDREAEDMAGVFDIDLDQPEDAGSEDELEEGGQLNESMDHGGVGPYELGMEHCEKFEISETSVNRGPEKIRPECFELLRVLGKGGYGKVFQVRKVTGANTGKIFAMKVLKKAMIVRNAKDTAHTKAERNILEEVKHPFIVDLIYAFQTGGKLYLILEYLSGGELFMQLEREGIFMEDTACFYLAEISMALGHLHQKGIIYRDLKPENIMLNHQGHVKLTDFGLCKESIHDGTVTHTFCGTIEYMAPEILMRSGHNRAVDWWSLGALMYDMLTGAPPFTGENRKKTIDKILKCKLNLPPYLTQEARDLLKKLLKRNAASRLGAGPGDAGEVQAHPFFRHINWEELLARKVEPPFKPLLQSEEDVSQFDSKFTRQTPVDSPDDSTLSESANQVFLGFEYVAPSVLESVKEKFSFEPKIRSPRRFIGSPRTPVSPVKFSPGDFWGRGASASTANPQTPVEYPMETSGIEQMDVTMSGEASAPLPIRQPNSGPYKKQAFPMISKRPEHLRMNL

As a reminder, the IC50 is the midpoint of a concentration-inhibition curve. In the case of `NC(=O)c1cccc2c(NCc3ccccn3)nnnc12` [Compound 5, 4-((pyridin-2-ylmethyl)amino)benzo[d][1,2,3]triazine-8-carboxamide], the IC50 in experiment [1] (setting [3]) and in experiment [2] (setting [4]) was more than 1 µM in each case.
For `CNC[C@@H](Nc1ncnc2c(C(N)=O)ccnc12)c1cccc(Br)c1` [Compound 65, 4-[(S)-1-(3-Bromo-phenyl)-2-methylamino-ethylamino]-pyrido[3,2-d]pyrimidine-8-carboxylic Acid Amide], the IC50 in experiment [1] (setting [3]) and in experiment [2] (setting [4]) was less than 0.025 µM in each case.
As for `NC(=O)c1ccnc2c(NC3CNCCC3c3ccc(C(F)(F)F)cc3)ncnc12` (stereo not shown) [Compound 25, 4-((4-(4-(trifluoromethyl)phenyl)piperidin-3-yl)amino)pyrido[3,2-d]pyrimidine-8-carboxamide], the half-inhibitory concentration (IC50) in experiment [1] (setting [3]) is 0.501 to 1 µM; in experiment [2] (setting [4]), less than 0.025 µM.
On the same counts, the results for `CNC[C@@H](Nc1ncnc2c(C(N)=O)ccnc12)c1cccc(F)c1` [Compound 66, 4-[(S)-1-(3-Fluoro-phenyl)-2-methylamino-ethylamino]-pyrido[3,2-d]pyrimidine-8-carboxylic Acid Amide] are less than 0.025 µM and less than 0.025 µM.
In the case of `COc1cc([C@@H](CN2CCC2)Nc2nnnc3c(C(N)=O)cccc23)ccc1Cl` [Compound 10, (S)-4-((2-(azetidin-1-yl)-1-(4-chloro-3-methoxyphenyl)ethyl)amino)-benzo[d][1,2,3]triazine-8-carboxamide], the half-inhibitory concentration (IC50) in experiment [1] (setting [3]) was 0.101 to 0.5 µM; in experiment [2] (setting [4]), less than 0.025 µM.
On the same counts, the results for `NC(=O)c1cccc2c(NCc3cccc(F)c3)nnnc12` [Compound 9, 4-((3-fluorobenzyl)amino)benzo[d][1,2,3]triazine-8-carboxamide] are more than 1 µM and 0.501 to 1 µM.
On the same counts, the results for `NC(=O)c1ccnc2c(N[C@H](CN3CC(F)C3)c3ccc(Cl)c(C(F)(F)F)c3)ncnc12` [Compound 69, 4-[(S)-1-(4-Chloro-3-trifluoromethyl-phenyl)-2-(3-fluoro-azetidin-1-yl)-ethylamino]-pyrido[3,2-d]pyrimidine-8-carboxylic Acid Amide] are 0.025 to 0.1 µM and less than 0.025 µM.
On the same counts, the results for `CNC[C@@H](Nc1ncnc2c(C(N)=O)ccnc12)c1ccc(Cl)c(Cl)c1` [Compound 75, 4-[(S)-1-(3,4-Dichloro-phenyl)-2-methylamino-ethylamino]-pyrido[3,2-d]pyrimidine-8-carboxylamide] are less than 0.025 µM and less than 0.025 µM.
For the molecule `NC(=O)c1ccnc2c(N[C@H](CN3CCC3)c3ccc(Cl)c(C(F)(F)F)c3)ncnc12` [Compound 41, 4-[(S)-2-Azetidin-1-yl-1-(4-chloro-3-trifluoromethyl-phenyl)-ethylamino]-pyrido[3,2-d]pyrimidine-8-carboxamide], the IC50 in experiment [1] (setting [3]) was less than 0.025 µM; in experiment [1] (setting [5]) it was 0.011 µM; in experiment [2] (setting [4]), less than 0.025 µM; in experiment [2] (setting [5]) it was 0.0016 µM.
For `NC(=O)c1ccnc2c(N[C@H](CN3CCC3)c3cccc(F)c3)ncnc12` [Compound 68, 4-[(S)-2-Azetidin-1-yl-1-(3-fluoro-phenyl)-ethylamino]-pyrido[3,2-d]pyrimidine-8-carboxylic Acid Amide], the IC50 in experiment [1] (setting [3]) is 0.025 to 0.1 µM; in experiment [2] (setting [4]) it was less than 0.025 µM.
Take `CNC[C@@H](Nc1ncnc2c(C(N)=O)ccnc12)c1ccc(C(F)(F)F)c(F)c1` [Compound 26, 4-[(S)-1-(3-Fluoro-4-trifluoromethyl-phenyl)-2-methylamino-ethylamino]-pyrido[3,2-d]pyrimidine-8-carboxylic Acid Amide]: the IC50 in experiment [1] (setting [3]) and in experiment [2] (setting [4]) was less than 0.025 µM throughout.
`NC(=O)c1ccnc2c(N[C@H](CN3CC(O)C3)c3ccc(Cl)c(C(F)(F)F)c3)ncnc12` [Compound 70, 4-[(S)-1-(4-Chloro-3-trifluoromethyl-phenyl)-2-(3-hydroxy-azetidin-1-yl)-ethylamino]-pyrido[3,2-d]pyrimidine-8-carboxylic Acid Amide]: the IC50 in experiment [1] (setting [3]) was 0.025 to 0.1 µM; in experiment [2] (setting [4]) it was less than 0.025 µM.
Turning to `CCNC[C@@H](Nc1ncnc2c(C(N)=O)ccnc12)c1cc(F)c(OC)cc1F` [Compound 31, 4-[(S)-1-(2,5-Difluoro-4-methoxy-phenyl)-2-ethylamino-ethylamino]-pyrido[3,2-d]pyrimidine-8-carboxylic Acid Amide], the half-inhibitory concentration (IC50) in experiment [1] (setting [3]) was more than 1 µM; in experiment [2] (setting [4]), 0.025 to 0.1 µM.
On the same counts, the results for `NC(=O)c1cncc2c(N[C@@H](CN3CCC3)c3ccc(Cl)c(C(F)(F)F)c3)ncnc12` [Compound 19, (R)-4-((2-(azetidin-1-yl)-1-(4-chloro-3-(trifluoromethyl)phenyl)ethyl)amino)pyrido[4,3-d]pyrimidine-8-carboxamide] are more than 1 µM and more than 1 µM.
For `CNC[C@@H](Nc1ncnc2c(C(N)=O)ccnc12)c1ccc(Cl)cc1` [Compound 45, 4-[(S)-1-(4-Chloro-phenyl)-2-methylamino-ethylamino]-pyrido[3,2-d]pyrimidine-8-carboxylic Acid Amide], the half-inhibitory concentration (IC50) in experiment [1] (setting [3]) is 0.025 to 0.1 µM; in experiment [2] (setting [4]), less than 0.025 µM.
On the same counts, the results for `Cc1cc([C@@H](CN2CCC2)Nc2ncnc3c(C(N)=O)ccnc23)ccc1Cl` [Compound 46, 4-[(S)-2-Azetidin-1-yl-1-(4-chloro-3-methyl-phenyl)-ethylamino]-pyrido[3,2-d]pyrimidine-8-carboxylic Acid Amide] are less than 0.025 µM and less than 0.025 µM.
On the same counts, the results for `NC(=O)c1cccc2c(N[C@H](CN3CCC3)c3ccc(F)c(C(F)(F)F)c3)nnnc12` [Compound 12, (S)-4-((2-(azetidin-1-yl)-1-(4-fluoro-3-(trifluoromethyl)phenyl)ethyl)amino)benzo[d][1,2,3]triazine-8-carboxamide] are less than 0.025 µM and less than 0.025 µM.
On the same counts, the results for `CNC[C@@H](Nc1ncnc2c(C(N)=O)ccnc12)c1ccc(Cl)c(C)c1` [Compound 44, 4-[(S)-1-(4-Chloro-3-methyl-phenyl)-2-methylamino-ethylamino]-pyrido[3,2-d]pyrimidine-8-carboxylic Acid Amide] are less than 0.025 µM and less than 0.025 µM.
Take `CNC[C@@H](Nc1ncnc2c(C(N)=O)ccnc12)c1ccc(C)c(C(F)(F)F)c1` [Compound 76, 4-[(S)-2-Methylamino-1-(4-methyl-3-trifluoromethyl-phenyl)-ethylamino]-pyrido[3,2-d]pyrimidine-8-carboxylic Acid Amide]: the concentration for half-maximal inhibition (IC50) in experiment [1] (setting [3]) and in experiment [2] (setting [4]) was less than 0.025 µM each time.
As for `CNC[C@@H](Nc1ncnc2c(C(N)=O)ccnc12)c1ccc(Cl)c(C(F)(F)F)c1` [Compound 72, 4-[(S)-1-(4-Chloro-3-trifluoromethyl-phenyl)-2-methylamino-ethylamino]-pyrido[3,2-d]pyrimidine-8-carboxylic Acid Amide], the IC50 in experiment [1] (setting [3]) and in experiment [2] (setting [4]) was less than 0.025 µM each time.
For `NC(=O)c1ccnc2c(N[C@H](CN3CCC3)c3ccc(Cl)cc3)ncnc12` [Compound 36, 4-[(S)-2-Azetidin-1-yl-1-(4-chloro-phenyl)-ethylamino]-pyrido[3,2-d]pyrimidine-8-carboxylic Acid Amide], the IC50 was 0.101 to 0.5 µM in experiment [1] (setting [3]) and less than 0.025 µM in experiment [2] (setting [4]).
On the same counts, the results for `COc1cc([C@@H](CN(C)C)Nc2nnnc3c(C(N)=O)cccc23)ccc1Cl` [Compound 11, (S)-4-((1-(4-chloro-3-methoxyphenyl)-2-(dimethylamino)ethyl)amino)-benzo[d][1,2,3]triazine-8-carboxamide] are 0.101 to 0.5 µM and 0.025 to 0.1 µM.
